Measurements: patent US20130101628A1 (NORTHWESTERN UNIVERSITY, priority 2011, published 2013)
* marks the point of attachment. Palmitoyl = CCCCCCCCCCCCCCCC(=O)*

B1: mutant PA (CH3(CH2)14C(O)-VVAAKKKGKLTAQELVFLKVKGI-NH2) (peptide)
peptide: Palmitoyl-VVAAKKKGKLTAQELVFLKVKGI-NH2
SMILES: CCCCCCCCCCCCCCCC(=O)N[C@H](C(=O)N[C@H](C(=O)N[C@@H](C)C(=O)N[C@@H](C)C(=O)N[C@@H](CCCCN)C(=O)N[C@@H](CCCCN)C(=O)N[C@@H](CCCCN)C(=O)NCC(=O)N[C@@H](CCCCN)C(=O)N[C@@H](CC(C)C)C(=O)N[C@H](C(=O)N[C@@H](C)C(=O)N[C@@H](CCC(N)=O)C(=O)N[C@@H](CCC(=O)O)C(=O)N[C@@H](CC(C)C)C(=O)N[C@H](C(=O)N[C@@H](Cc1ccccc1)C(=O)N[C@@H](CC(C)C)C(=O)N[C@@H](CCCCN)C(=O)N[C@H](C(=O)N[C@@H](CCCCN)C(=O)NCC(=O)N[C@H](C(N)=O)[C@@H](C)CC)C(C)C)C(C)C)[C@@H](C)O)C(C)C)C(C)C
B2: VEGF-PA (CH3(CH2)14C(O)-VVAAKKKGKLTWQELYQLKYKGI-NH2) (peptide)
peptide: Palmitoyl-VVAAKKKGKLTWQELYQLKYKGI-NH2
SMILES: CCCCCCCCCCCCCCCC(=O)N[C@H](C(=O)N[C@H](C(=O)N[C@@H](C)C(=O)N[C@@H](C)C(=O)N[C@@H](CCCCN)C(=O)N[C@@H](CCCCN)C(=O)N[C@@H](CCCCN)C(=O)NCC(=O)N[C@@H](CCCCN)C(=O)N[C@@H](CC(C)C)C(=O)N[C@H](C(=O)N[C@@H](Cc1c[nH]c2ccccc12)C(=O)N[C@@H](CCC(N)=O)C(=O)N[C@@H](CCC(=O)O)C(=O)N[C@@H](CC(C)C)C(=O)N[C@@H](Cc1ccc(O)cc1)C(=O)N[C@@H](CCC(N)=O)C(=O)N[C@@H](CC(C)C)C(=O)N[C@@H](CCCCN)C(=O)N[C@@H](Cc1ccc(O)cc1)C(=O)N[C@@H](CCCCN)C(=O)NCC(=O)N[C@H](C(N)=O)[C@@H](C)CC)[C@@H](C)O)C(C)C)C(C)C

Experiments:
[1] = biological target: T1, VEGF receptor 2 (VEGFR2 or KDR) (Homo sapiens, UniProt P35968); test: Sandwich ELISA of phosphorylated VEGFR2 in lysates of stimulated HUVEC; format: cell-based; details: HUVEC, 1 μM, 2 minutes exposure; untreated control 1.000±0.109
T1 construct: host or cells: HUVEC
Experimental: Human umbilical vein endothelial cells (HUVECs) and complete endothelial cell growth media (EGM) were purchased (Genlantis, San Diego, Calif.), passaged two times following receipt, and cryo-preserved in media with 5% DMSO. Cells were thawed as needed and grown to confluence in a […] flasks (VWR Falcon) prior to plating for experiments.
Phosphorylation of both VEGFRI and VEGFR2 was assayed using commercially available assay kit (R&D Systems, Minneapolis, Minn.) following the recommended protocol. First, confluent HUVECs plated in 24 well plates were starved for 5 hours in serum-free defined media (SFDM, Genlantis) specifically designed to maintain cells in a growth factor-free setting for growth factor signaling and metabolic assays. Following starvation, the various treatments were dissolved in SFDM to a concentration of 1 μM. […] Cells were exposed to treatment for 2 minutes. To evaluate the time-course of phosphorylation the same protocol was followed and cells were exposed to VEGF-PA for 0, 1, 3, 5, 10, 15, 20, 25, 30, 40, 50, and 60 minutes.

HUVECs [2] = test: HUVEC proliferation (CyQUANT-NF cell number); format: cell-based, human; details: 1 μM in EGM, 48 hours; untreated control 100.0%
Experimental: In vitro studies were performed using HUVECs, a primary endothelial cell that is VEGF-responsive and frequently used as a model endothelial cell for angiogenesis studies in vitro [31].
To evaluate proliferation, HUVECs were plated at 5000 per well in a 96 well plate. […] Additionally, unsupplemented growth media was used as a control. After 48 hours, cell number was quantified using CyQUANT-NF (Invitrogen) and a standard fluorescent microplate reader. Cell number is expressed relative to the group treated with unsupplemented growth media.

HUVECs [3] = test: HUVEC survival after serum-starvation (Annexin V-PE apoptosis); format: cell-based, human; details: 1 μM in EBM, serum-starvation 24 hours; untreated 31.7%
Experimental: To evaluate cell survival, endothelial basal media (EBM) without growth factors (Lonza) was used to induce a serum-starvation. Cells were plated in 12 well plates and grown to confluence with standard growth media. […] Cells were grown in these conditions for 24 hours. Survival was quantified using Annexin V: PE staining with 7-AAD vital staining (BD Biosciences) following provided assay instructions and analyzed on a DakoCytomation CyAn. Survival was assessed by determining the fraction of cells that were apoptotic (Annexin V-PE positive).

HUVECs [4] = test: HUVEC migration scratch assay; format: cell-based, human; details: 1 μM in EBM with 0.5% FBS, 18 hours; untreated 25.2%
Experimental: To evaluate cell migration, endothelial basal media (EBM) without growth factors (Lonza) was supplemented with 0.5% FBS in order to prevent apoptosis but not promote significant migration or proliferation. Cells were grown to confluence in a 12 well plate and a 1 ml pipette tip was used to create a denuded scratch and the surface was washed twice with PBS to remove detached cells. The average scratch width at the initial time-point was […] Markings were placed on the underside of the plate to ensure the same region of the scratch was recorded in each image. […] The total pixel area of the scratch at the initial time-point was recorded using ImageJ analysis software, and the percent migration was determined from the reduction in denuded area at 18 hours.

[5] = system: chicken chorioallantoic membrane (CAM); test: Shell-less chicken chorioallantoic membrane (CAM) angiogenesis assay; format: in vivo; details: 2 mM in PBS dried on coverslip, three days following treatment; saline 132%
Source text: An established assay reflecting in vivo angiogenesis, the chicken chorioallantoic membrane (CAM) assay, was used to evaluate the angiogenic potential of the VEGF-PA of the present examples. This assay utilizes the extra-embryonic allantois, a tissue derived from the mesoderm that develops into a densely vascularized membrane. A common deviation from the traditional assay is to remove the shell and conduct the assay on a shell-less embryo, termed the shell-less CAM assay, as we have performed here. Fertilized white leghorn chicken eggs (Phil's Fresh Eggs, Forreston, Ill.) were received and cultured in a temperature controlled, humidified egg incubator. On embryonic day 3, eggs were cracked within a sterile tissue culture hood into round 100 mm petri dishes. Fertilized embryos were then transferred to a water-jacketed CO2 incubator, set to 37.5° C., 1% CO2 and 100% relative humidity. On embryonic day 10, the material treatment was dissolved at 2 mM in PBS, evaporated onto the surface of a 5 mm round glass cover slip, and placed facing down on top of the CAM (n=16/group). Digital images were captured through the eyepiece of a Nikon stereomicroscope and vessel density was quantified by the number of intersections of vessel structures with the edge of the cover slip and expressed relative to the initial time-point. Images were captured daily, beginning at embryonic day 10 and culminating on embryonic day 13, the standard range over which the CAM assay is performed. Additionally, images were assessed qualitatively for morphological differences in the CAM vasculature including spoking, branching and leakage.

ischemic hind-limb = test: Murine hind-limb ischemia (HLI) model; format: in vivo, mice; details: for limb motor function score / tissue (limb) salvage score: single i.m. injection 25 μl of 2 mM; for limb motor function score: grade 1-5; for tissue (limb) salvage score: grade 1-6; for Rota Rod walking time prior to failure: saline 90.4 seconds; for number of CD31+ capillaries in ischemic limb muscle: tissue harvested at day 28, saline 893/mm2
Experimental: For the HLI procedure, eight week old male FVB wild-type mice (Charles River) were anesthetized by intraperitoneal injection of avertin (125 mg/kg). By means of a dissecting microscope, the femoral nerve was carefully separated from the vessel bundle. The right femoral artery was ligated and excised, including all superficial and deep branches. Critical limb ischemia was immediately verified by laser Doppler imaging (LDPI, MoorLDI-SIM, Moor Instruments, Ltd) to ensure the ratio (ischemic/non-ischemic limb) was ≦0.20. At postoperative day 3, outliers with low ischemia were triaged based on LDPI (ratio ischemic/nonischemic 0.30) as were outliers with extreme ischemia (necrotic demarcation of entire limb), determined by macroscopic evaluation. […] For follow-up, animals underwent reevaluations with LDPI at postoperative day 7, 14, and 28 before animals were sacrificed (CO, asphyxia) for tissue harvest at day 28. At each time-point, tissue perfusion was measured via LDPI, measuring blood flow in both the ischemic and non-ischemic limb and reporting results as the ratio of these two measurements. All LDPI measurements were taken on a 37° C. heating pad to control body temperature. In addition, motor function and tissue damage was semi-quantitatively assessed on post-operative day 7, 14, 21 and 28 by established scoring systems. Tissue damage in the ischemic limb (limb salvage score) was graded as full recovery (grade 6), minor necrosis or nail loss (grade 5), partial toe amputation (grade 4), total toe amputation (grade 3), partial/total foot amputation (grade 2) or partial/total limb amputation (grade 1) (modified from). Limb motor function was graded as unrestricted (grade 5), no active use of toe(s) or spreading (grade 4), restricted foot use (grade 3), no use of foot (grade 2) or no use of limb at all (grade 1) (modified from). Finally, walking capacity was measured via a Rota Rod apparatus. […] The mean of two assessments was used as for failure time for each animal. At day 28, muscle tissue from the ischemic limb was harvested, fixed in methanol, paraffin-embedded, and cross-sectioned (6-μm) for histological immunostaining. Briefly, sections were blocked with 10% donkey serum (30 min, RT). Primary antibodies were diluted in PBS containing BSA, and applied to tissue slices for 2 hrs at 37° C. Sections were stained for CD31, an endothelial-specific marker, using rat anti-CD31 antibodies (BD Pharmingen Inc) and smooth-muscle α-actin (αSMA), a vascular smooth muscle marker, using rabbit-anti-αSMA (Sigma-Aldrich Co.). For immunofluorescent detection, primary antibodies were resolved with Alexa-Fluor-conjugated secondary antibodies (Invitrogen Corporation, Carlsbad, Calif., USA dilution) and nuclei were counterstained with DAPI (Research Organics). Slides were imaged using fluorescent microscopy (Zeiss), and CD31+capillary forms and CD31+/sMA+]mature microvessels/arterioles were quantified in 3 separate high-power fields (20×) from 3 independent sections in each animal (9 images/animal). All error bars indicate the standard error of the mean. Differences between groups were determined using a one-way analysis of variance (ANOVA) with a Bonferroni multiple comparisons post-hoc test using GraphPad InStat v3.0b. […] VEGF-PA or control treatments were administered by an intramuscular injection three days following the induction of critical ischemia by ligation and excision of the right femoral artery and all superficial and deep branches, as described above. Animals were assessed serially throughout the study for motor function and limb salvage and Laser Doppler perfusion imaging (LDPI) was used to assess tissue perfusion. At the end of the study, exercise endurance was recorded on a Rota Rod treadmill and tissue was harvested for immunohistological staining of capillaries to observe effects on the microcirculation.

VEGF receptor 1 = VEGF receptor 1 (human, UniProt P17948 27-1338); test: cell-based or functional assay
[6] = 14 days after induction of ischemia

Sequence of VEGF receptor 1 (P17948 27-1338): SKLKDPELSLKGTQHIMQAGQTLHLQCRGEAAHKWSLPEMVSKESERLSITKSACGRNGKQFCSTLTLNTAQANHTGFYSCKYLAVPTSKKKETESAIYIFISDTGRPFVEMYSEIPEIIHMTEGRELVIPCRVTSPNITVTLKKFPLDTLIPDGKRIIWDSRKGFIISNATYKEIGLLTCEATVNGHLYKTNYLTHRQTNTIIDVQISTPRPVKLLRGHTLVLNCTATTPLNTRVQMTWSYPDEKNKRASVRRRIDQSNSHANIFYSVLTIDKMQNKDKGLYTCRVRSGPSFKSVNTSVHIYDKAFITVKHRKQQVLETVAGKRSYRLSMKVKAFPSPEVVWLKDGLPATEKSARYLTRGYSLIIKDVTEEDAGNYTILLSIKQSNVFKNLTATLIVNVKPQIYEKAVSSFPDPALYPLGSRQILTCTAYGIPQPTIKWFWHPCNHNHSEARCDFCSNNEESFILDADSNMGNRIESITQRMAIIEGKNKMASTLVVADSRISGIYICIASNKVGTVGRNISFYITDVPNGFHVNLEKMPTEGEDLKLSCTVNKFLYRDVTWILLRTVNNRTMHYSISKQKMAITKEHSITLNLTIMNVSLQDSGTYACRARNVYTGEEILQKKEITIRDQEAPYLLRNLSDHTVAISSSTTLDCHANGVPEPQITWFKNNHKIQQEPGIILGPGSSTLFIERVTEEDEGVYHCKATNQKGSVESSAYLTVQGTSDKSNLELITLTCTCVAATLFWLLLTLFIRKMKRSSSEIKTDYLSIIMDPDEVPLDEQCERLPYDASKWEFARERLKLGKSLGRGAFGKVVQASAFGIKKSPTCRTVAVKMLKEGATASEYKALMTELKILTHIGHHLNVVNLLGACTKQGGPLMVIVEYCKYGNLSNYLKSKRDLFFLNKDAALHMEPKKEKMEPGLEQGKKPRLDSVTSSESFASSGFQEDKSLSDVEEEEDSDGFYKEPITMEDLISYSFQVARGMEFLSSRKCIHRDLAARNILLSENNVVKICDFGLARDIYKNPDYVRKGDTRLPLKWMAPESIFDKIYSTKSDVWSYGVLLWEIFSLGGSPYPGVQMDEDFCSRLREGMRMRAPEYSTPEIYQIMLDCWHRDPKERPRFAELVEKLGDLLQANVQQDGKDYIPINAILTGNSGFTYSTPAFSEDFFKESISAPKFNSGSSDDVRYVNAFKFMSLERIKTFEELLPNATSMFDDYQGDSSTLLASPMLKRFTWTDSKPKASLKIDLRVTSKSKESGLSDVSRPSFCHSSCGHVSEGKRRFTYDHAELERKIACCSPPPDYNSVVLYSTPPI
T1 sequence (P35968 20-1356): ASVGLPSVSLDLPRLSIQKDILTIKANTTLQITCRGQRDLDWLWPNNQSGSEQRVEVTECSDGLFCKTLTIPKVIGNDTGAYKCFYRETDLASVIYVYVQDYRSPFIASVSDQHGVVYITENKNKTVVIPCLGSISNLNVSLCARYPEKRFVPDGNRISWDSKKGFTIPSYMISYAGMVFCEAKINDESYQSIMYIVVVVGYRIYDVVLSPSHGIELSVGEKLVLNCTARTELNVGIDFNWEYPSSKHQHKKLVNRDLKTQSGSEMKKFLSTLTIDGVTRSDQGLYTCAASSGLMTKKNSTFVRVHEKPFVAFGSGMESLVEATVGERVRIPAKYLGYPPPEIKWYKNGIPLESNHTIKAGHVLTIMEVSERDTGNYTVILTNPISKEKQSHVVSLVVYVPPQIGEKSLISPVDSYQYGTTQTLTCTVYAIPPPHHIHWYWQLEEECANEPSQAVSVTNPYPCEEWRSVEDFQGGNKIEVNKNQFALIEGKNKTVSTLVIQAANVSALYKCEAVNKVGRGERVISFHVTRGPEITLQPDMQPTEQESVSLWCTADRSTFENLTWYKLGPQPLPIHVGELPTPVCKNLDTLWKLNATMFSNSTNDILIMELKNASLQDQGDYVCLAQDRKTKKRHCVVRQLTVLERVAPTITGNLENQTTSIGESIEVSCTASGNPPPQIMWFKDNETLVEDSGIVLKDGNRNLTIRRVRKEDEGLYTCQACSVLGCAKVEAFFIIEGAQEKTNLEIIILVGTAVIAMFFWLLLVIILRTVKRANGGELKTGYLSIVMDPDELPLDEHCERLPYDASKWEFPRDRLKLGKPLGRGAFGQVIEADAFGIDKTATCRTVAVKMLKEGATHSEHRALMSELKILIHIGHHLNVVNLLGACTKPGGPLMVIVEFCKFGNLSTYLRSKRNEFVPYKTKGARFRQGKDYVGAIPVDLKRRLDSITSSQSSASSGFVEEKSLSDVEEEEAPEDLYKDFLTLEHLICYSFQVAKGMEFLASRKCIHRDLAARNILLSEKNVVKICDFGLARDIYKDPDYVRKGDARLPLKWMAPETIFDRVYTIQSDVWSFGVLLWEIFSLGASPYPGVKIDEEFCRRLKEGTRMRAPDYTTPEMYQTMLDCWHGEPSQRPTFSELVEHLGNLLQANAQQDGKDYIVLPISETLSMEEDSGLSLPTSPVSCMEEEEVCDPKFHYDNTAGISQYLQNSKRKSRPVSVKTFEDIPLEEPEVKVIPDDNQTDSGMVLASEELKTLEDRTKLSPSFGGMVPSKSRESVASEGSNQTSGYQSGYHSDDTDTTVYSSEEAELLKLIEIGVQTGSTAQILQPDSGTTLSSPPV

Molecule	VEGFR2 phosphorylation level relative to untreated control [1]	proliferation (cell number relative to unsupplemented growth media) (HUVECs [2])	fraction of apoptotic cells (Annexin V-PE positive) (HUVECs [3])	reduction in scratch wound size (denuded area) (HUVECs [4])	blood vessels relative to the initial value [5]	LDPI perfusion ratio (ischemic/non-ischemic limb) (ischemic hind-limb; [6])	limb motor function score (ischemic hind-limb; day 21)	tissue (limb) salvage score (ischemic hind-limb; day 21)	LDPI perfusion ratio (ischemic/non-ischemic limb) (ischemic hind-limb; day 28)	Rota Rod walking time prior to failure (ischemic hind-limb; day 28)	limb motor function score (ischemic hind-limb; day 28)	tissue (limb) salvage score (ischemic hind-limb; day 28)	number of CD31+ capillaries in ischemic limb muscle (ischemic hind-limb)	amount of phosphorylated VEGFR1 relative to untreated control (sandwich ELISA on HUVEC lysates, 1 uM, 2 min) (VEGF receptor 1)	other results
Ac-KLTWQELYQLKYKGI-NH2 [VEGF peptide]	1.343±0.050	98.4%±0.7%	23.4%±1.1%	52.5%±4.1%	139%±11%	0.54±0.06	3.41±0.21	3.45±0.25	0.52±0.06	115.6 ± 10.9 s	3.50±0.17	3.45±0.25	949±48 /mm2		
CH3(CH2)14C(O)—VVAAKKKGKLTAQELVFLKVKGI-NH2 (Palmitoyl-VVAAKKKGKLTAQELVFLKVKGI-NH2; SMILES CCCCCCCCCCCCCCCC(=O)N[C@H](C(=O)N[C@H](C(=O)N[C@@H](C)C(=O)N[C@@H](C)C(=O)N[C@@H](CCCCN)C(=O)N[C@@H](CCCCN)C(=O)N[C@@H](CCCCN)C(=O)NCC(=O)N[C@@H](CCCCN)C(=O)N[C@@H](CC(C)C)C(=O)N[C@H](C(=O)N[C@@H](C)C(=O)N[C@@H](CCC(N)=O)C(=O)N[C@@H](CCC(=O)O)C(=O)N[C@@H](CC(C)C)C(=O)N[C@H](C(=O)N[C@@H](Cc1ccccc1)C(=O)N[C@@H](CC(C)C)C(=O)N[C@@H](CCCCN)C(=O)N[C@H](C(=O)N[C@@H](CCCCN)C(=O)NCC(=O)N[C@H](C(N)=O)[C@@H](C)CC)C(C)C)C(C)C)[C@@H](C)O)C(C)C)C(C)C) [mutant PA]	1.001±0.103	101.8%±1.4%	24.2%±1.1%	30.0%±7.3%	149%±8%	0.42±0.05	2.86±0.14	3.14±0.26	0.48±0.05	106.7 ± 17.6 s	3.29±0.18	3.43±0.37	954±81 /mm2		
Native VEGF (from UniProt P15692 27-191) (ligand)															amount of phosphorylated VEGFR1 relative to untreated control (sandwich ELISA on HUVEC lysates, 100 ng/ml, 2 min) (fold of untreated control) (VEGF receptor 1): 1.31
B1														0.931 fold of untreated control	
Ac-KLTWQELYQLKYKGI-NH2 [VEGF peptide (Ac-KLTWQELYQLKYKGI-NH2)]														1.33 fold of untreated control	
B2														1.63 fold of untreated control	
